The NIST ThermoML archive (doi:10.1021/acs.jced.7b00192)

Assay: molar heat capacity at constant pressure; mn = molality of the nth substance listed, in mol/kg
Settings: 10000 kPa, Liquid, Large sample (1 g) DSC

[K+].[OH-] [potassium hydroxide] + O
molar heat capacity at constant pressure [J/K/mol]
Settings | m1 = 0.201 | m1 = 0.5009 | m1 = 0.999 | m1 = 2.012 | m1 = 3 | m1 = 4.505 | m1 = 6.002
448.7 K | – | – | 75.9 | 74.44 | 73.28 | 72.37 | –
461 K | 78.47 | 77.61 | 76.51 | 74.86 | 73.71 | 72.74 | 72.04
473.4 K | 79.36 | 78.39 | 77.23 | 75.47 | 74.29 | 73.14 | 72.44
485.7 K | 80.4 | 79.34 | – | – | 74.75 | 73.56 | 72.83
485.8 K | – | – | 78 | 76.01 | – | – | –
498.1 K | 81.6 | 80.4 | 78.94 | 76.7 | 75.36 | 74.05 | 73.27
510.5 K | 83.06 | 81.72 | 80 | 77.49 | 75.91 | 74.43 | 73.69
522.8 K | 84.83 | 83.26 | 81.23 | – | 76.7 | 74.99 | 74.16
522.9 K | – | – | – | 78.41 | – | – | –
535.2 K | 87.02 | 85.12 | 82.83 | 79.52 | 77.5 | 75.54 | 74.51
547.6 K | 89.76 | 87.48 | 84.7 | 80.95 | 78.49 | 76.26 | 75.11
555 K | 91.77 | 89.19 | 86.04 | 81.81 | 79.19 | 76.73 | 75.41
564.9 K | 95.05 | 91.89 | 88.12 | 83.07 | 80.09 | 77.46 | 75.77
